# Paper PMC8416565 (Oncotarget, 2021)
# Molecular target: T1, MAP2K7 (Homo sapiens, UniProt O14733)
# T1 construct: purified human MAP2K7 (Origene)
# T1 sequence (O14733 2-419): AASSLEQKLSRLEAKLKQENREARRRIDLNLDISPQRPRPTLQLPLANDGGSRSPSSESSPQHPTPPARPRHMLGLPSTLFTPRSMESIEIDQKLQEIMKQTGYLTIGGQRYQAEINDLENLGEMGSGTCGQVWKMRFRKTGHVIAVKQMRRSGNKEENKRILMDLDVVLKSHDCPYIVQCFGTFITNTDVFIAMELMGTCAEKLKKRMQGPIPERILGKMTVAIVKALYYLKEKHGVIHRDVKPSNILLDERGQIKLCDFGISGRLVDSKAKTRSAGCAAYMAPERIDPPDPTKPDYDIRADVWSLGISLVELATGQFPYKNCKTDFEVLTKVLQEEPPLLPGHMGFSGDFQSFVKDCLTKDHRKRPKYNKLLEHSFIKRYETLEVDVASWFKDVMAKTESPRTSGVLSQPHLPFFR
# Test: in vitro kinase assay (Kinase-Glo Plus / ADP-Glo), dead JNK2 substrate, 30-min preincubation
# Type: biochemical
compound,measurement,value
"COc1cc(O)c2c(c1)/C=C/C[C@H](O)[C@H](O)C(=O)/C=C\C[C@H](C)OC2=O [5Z7O, 5Z-7-oxozeaenol]",IC50,1.2 µM
